Test results from US20070012632A1, “Synergistic composition and method for inhibiting growth of microorganisms” (priority 2005, published 2007).

Legend:
Format in all cases: cell-based
[1] = test system: total bacteria in paper mill white water; assay: Total bacterial counts in white water, mill using mechanical pulp (Example 1); conditions: 50 minutes contact time; for Total bacterial counts: white water
Procedure: The furnish used in this mill is composed of about 50% TMP, 25% bleached Kraft pulp, and 25% broke. White water was collected and total bacterial counts were determined in samples with and without the addition of DMH stabilized chlorine (1:1 molar ratio of DMH to “Cl2) and/or PAA, after 50 minutes of contact time.

[2] = test system: total bacteria in paper mill white water; assay: Total bacterial counts in white water, very closed mill using chemical pulp (Example 3); parameters: Total bacterial counts: unit not given here; conditions: 30 minutes contact time; for Total bacterial counts: white water
Procedure: The furnish used in this mill is composed of about 75% bleached Kraft pulp, and 25% broke. White water was collected and total bacterial counts were determined in samples with and without the addition of DMH stabilized chlorine (1:1 molar ratio of DMH to “Cl2”), and/or PAA, after 30 minutes of contact time.

[3] = test system: total bacteria in paper mill white water; assay: Total bacterial counts in white water, mill using chemical pulp (Example 2); conditions: 30 minutes contact time; for Total bacterial counts: white water
Procedure: The furnish used on this paper machine is composed of about 60% bleached Kraft pulp, and 40% broke. White water was collected and total bacterial counts were determined in samples with and without the addition of DMH stabilized chlorine (1:1 molar ratio of DMH to “Cl2”), and/or PAA, after 30 minutes of contact time.

Question: With CC(=O)OO [PAA, peracetic acid] as the compound, how does the Total bacterial counts ([1]; PAA 25 ppm product) read?
Answer: 4 × 10^6

Question: What about the Total bacterial counts ([1]; PAA 50 ppm product) of the same compound?
Answer: 3 × 10^5

Question: And the Total bacterial counts ([1]; PAA 100 ppm product)?
Answer: 3 × 10^3

Question: And the “Concentration alone achieving >3-log reduction in bacterial counts” value ([1]; biocide alone)?
Answer: 100 ppm

Question: What about the Total bacterial counts ([2]; PAA 50 ppm product) of the same compound?
Answer: 4.5 × 10^6

Question: What about the Total bacterial counts ([2]; PAA 75 ppm product) of the same compound?
Answer: 1.6 × 10^6

Question: What about the Total bacterial counts ([2]; PAA 100 ppm product) of the same compound?
Answer: 3 × 10^5

Question: What about the Total bacterial counts ([2]; PAA 150 ppm product) of the same compound?
Answer: 10^3

Question: And the Total bacterial counts ([2]; PAA 200 ppm product)?
Answer: <10^2

Question: What about the “Concentration alone achieving 2-log reduction in bacterial counts” value ([2]; biocide alone) of the same compound?
Answer: 150 ppm

Question: What about the Total bacterial counts ([3]; PAA 2.5 ppm product) of the same compound?
Answer: 5.8 × 10^6

Question: What about the Total bacterial counts ([3]; PAA 5 ppm product) of the same compound?
Answer: 1.1 × 10^6

Question: What about the Total bacterial counts ([3]; PAA 10 ppm product) of the same compound?
Answer: 5 × 10^4

Question: What about the “Concentration alone achieving >3-log reduction in bacterial counts” value ([3]; biocide alone) of the same compound?
Answer: > 10 ppm
